From patent publication US4489091A, “Antilipemic and anti-inflammatory compositions containing sulfonate derivatives” (Taiho Pharmaceutical Company Limited, priority 1980, dated 1984)
Read-outs that look alike come from different tables or passages of the source.

How the values were obtained:
triglycerides = assay: Antilipemic effect: percent triglycerides inhibition in plasma of rats given an olive oil-cholesterol mixture; type: in vivo, male Wistar rats; conditions: for inhibition in vivo at 100 mg/kg: read-out: Anti-lipemic effect, TG (percent triglycerides inhibition); for inhibition in vivo at 200 mg/kg: read-out: Anti-lipemic effect, TG (percent triglycerides inhibition), asterisked
Procedure: (§1) The above compounds of this invention are tested by the following methods for antilipemic effect and acute toxicity. In the column of antilipemic effect in the table, the asterisked values indicate the effect achieved by orally giving 200 mg/kg of the compounds concerned, and the unmarked values, the effect attained by orally giving 100 mg/kg. In the same column, "TG" stands for percent triglycerides inhibition and "CS" percent cholesterol inhibition.
(§2) Seven-week-old male Wistar rats weighing 200 to 220 g are used, 5 rats in each group.
(§3) Each compound of the invention (100 mg or 200 mg) is dissolved in 10 ml of an olive oil-cholesterol mixture (containing 15% of cholesterol). The mixture containing the compound is orally given to the rat with a probe at a dose of 10 ml/kg. Two or 8 hours thereafter, 6 ml of whole blood is withdrawn from the descending aorta of the rat under ether anesthesia with a syringe containing heparin. The blood is centrifuged at 5° C. and 3000 r.p.m. to obtain the plasma. The plasma collected after the lapse of 2 hours is used for determining the triglycerides content, and the plasma obtained 8 hours later for determining the total cholesterol content, using a triglycerides measuring kit (trade mark "Triglycerides-B Test Wako," product of Wako Junyaku Co., Ltd., Japan) and a total cholesterol measuring kit (trade mark "Cholesterol Test Wako," product of the same), respectively. The olive oil-cholesterol mixture containing no compound is similarly given to a control group, while no treatment is conducted for a normal group. The triglycerides and total cholesterol contents in the plasma are also determined for these groups in the same manner as is the case with the test groups.
(§4) The present hyperlipidemia inhibition achieved by the present compound is given by [formula] in which A is the triglycerides (cholesterol) content of the control group, B is the triglycerides (cholesterol) content of the normal group, and C is the triglycerides (cholesterol) content of the group to which the present compound is given.

cholesterol = assay: Antilipemic effect: percent total cholesterol inhibition in plasma of rats given an olive oil-cholesterol mixture; type: in vivo, male Wistar rats; conditions: for inhibition in vivo at 100 mg/kg: read-out: Anti-lipemic effect, CS (percent cholesterol inhibition); for Anti-lipemic effect, CS (percent cholesterol inhibition), asterisked: oral 200 mg/kg (asterisked values)
Procedure: as §1, §2, §3, §4

Acute toxicity = conditions: rat, in vivo
Excerpt: Six-week-old male Wistar rats weighing 180 to 200 g are used, 5 rats in each group. Each compound of the invention is suspended in a 30% aqueous solution of polyethylene glycol 6000 and orally given to the rat at the dosage shown in Table 2. The animals are checked for poisoning, body weight and survival to determine the LD50 value.

[1] = oral 100 mg/kg, plasma 2 hours after dosing, Wistar rat
[2] = oral 100 mg/kg, plasma 8 hours after dosing, Wistar rat
[3] = oral, six-week-old male Wistar rats, suspended in 30% aqueous polyethylene glycol 6000, read-out: LD50
[4] = oral 200 mg/kg (asterisked values), plasma 2 hours after dosing, Wistar rat
[5] = plasma 8 hours after dosing, Wistar rat

## CCCC(=O)COS(=O)(=O)c1ccccc1 [Compound 6, 2-oxopentylbenzene sulfonate]
triglycerides; [1]
  inhibition in vivo at 100 mg/kg: 90%
cholesterol; [2]
  inhibition in vivo at 100 mg/kg: 53%
Acute toxicity; [3]
  LD50: > 1000 mg/kg

## CC(C)(C)CC(=O)COS(=O)(=O)c1ccccc1 [Compound 11]
triglycerides; [1]
  inhibition in vivo at 100 mg/kg: 80%
cholesterol; [2]
  inhibition in vivo at 100 mg/kg: 53%
Acute toxicity; po
  LD50: > 3000 mg/kg

## CC(C)CCC(=O)COS(=O)(=O)c1ccccc1 [Compound 12]
triglycerides; [1]
  inhibition in vivo at 100 mg/kg: 95%
cholesterol; [2]
  inhibition in vivo at 100 mg/kg: 63%
Acute toxicity; po
  LD50: > 2500 mg/kg

## CCC(=O)COS(=O)(=O)c1ccc(C)cc1 [Compound 15]
triglycerides; [1]
  inhibition in vivo at 100 mg/kg: 40%
cholesterol; [2]
  inhibition in vivo at 100 mg/kg: 41%
Acute toxicity; po
  LD50: > 1500 mg/kg

## CCCC(=O)COS(=O)(=O)c1ccc(C)cc1 [Compound 16, 2-oxopentyl-p-toluenesulfonate]
triglycerides; [1]
  inhibition in vivo at 100 mg/kg: 64%
cholesterol; [2]
  inhibition in vivo at 100 mg/kg: 31%
Acute toxicity; [3]
  LD50: > 1500 mg/kg

## CCCCC(=O)COS(=O)(=O)c1ccc(C)cc1 [Compound 17]
triglycerides; [1]
  inhibition in vivo at 100 mg/kg: 61%
cholesterol; [2]
  inhibition in vivo at 100 mg/kg: 33%
Acute toxicity; po
  LD50: > 2000 mg/kg

## CCCCCCCC(=O)COS(=O)(=O)c1ccc(C)cc1 [Compound 20]
triglycerides; [1]
  inhibition in vivo at 100 mg/kg: 71%
cholesterol; [2]
  inhibition in vivo at 100 mg/kg: 47%
Acute toxicity; po
  LD50: > 3000 mg/kg

## CCCCCCCCC(=O)COS(=O)(=O)c1ccc(C)cc1 [Compound 21]
triglycerides; [4]
  inhibition in vivo at 200 mg/kg: 70%
cholesterol; [5]
  Anti-lipemic effect, CS (percent cholesterol inhibition), asterisked: 43%
Acute toxicity; po
  LD50: > 3000 mg/kg

## CCCCC(CC)C(=O)COS(=O)(=O)c1ccc(C)cc1 (stereo not drawn) [Compound 26]
triglycerides; [1]
  inhibition in vivo at 100 mg/kg: 85%
cholesterol; [2]
  inhibition in vivo at 100 mg/kg: 72%
Acute toxicity; po
  LD50: > 4000 mg/kg

## CCCC(=O)COS(=O)(=O)c1ccccc1C [Compound 29, 2-oxopentyl-o-toluene sulfonate]
triglycerides; [1]
  inhibition in vivo at 100 mg/kg: 73%
cholesterol; [2]
  inhibition in vivo at 100 mg/kg: 30%
Acute toxicity; [3]
  LD50: > 1500 mg/kg

## CCCCC(=O)COS(=O)(=O)c1ccccc1C [Compound 30]
triglycerides; [1]
  inhibition in vivo at 100 mg/kg: 70%
cholesterol; [2]
  inhibition in vivo at 100 mg/kg: 36%
Acute toxicity; po
  LD50: > 1500 mg/kg

## CCCC(=O)COS(=O)(=O)c1ccc(OC)cc1 [Compound 34]
triglycerides; [1]
  inhibition in vivo at 100 mg/kg: 72%
cholesterol; [2]
  inhibition in vivo at 100 mg/kg: 68%
Acute toxicity; po
  LD50: > 1500 mg/kg

## CCCCC(=O)COS(=O)(=O)c1ccc(OC)cc1 [Compound 35, 2-oxahexyl-p-methoxybenzene sulfonate]
triglycerides; [1]
  inhibition in vivo at 100 mg/kg: 87%
cholesterol; [2]
  inhibition in vivo at 100 mg/kg: 72%
Acute toxicity; [3]
  LD50: > 2000 mg/kg

## CCCCCC(=O)COS(=O)(=O)c1ccc(OC)cc1 [Compound 36]
triglycerides; [1]
  inhibition in vivo at 100 mg/kg: 78%
cholesterol; [2]
  inhibition in vivo at 100 mg/kg: 79%
Acute toxicity; po
  LD50: > 2000 mg/kg

## COc1ccc(S(=O)(=O)OCC(=O)CCC(C)C)cc1 [Compound 40]
triglycerides; [1]
  inhibition in vivo at 100 mg/kg: 72%
cholesterol; [2]
  inhibition in vivo at 100 mg/kg: 70%
Acute toxicity; po
  LD50: > 2000 mg/kg

## C=CCCC(=O)COS(=O)(=O)c1ccc(OC)cc1 [Compound 41]
triglycerides; [1]
  inhibition in vivo at 100 mg/kg: 82%
cholesterol; [2]
  inhibition in vivo at 100 mg/kg: 61%
Acute toxicity; po
  LD50: > 2000 mg/kg

## CCCC(=O)COS(=O)(=O)c1ccc(OCC)cc1 [Compound 43]
triglycerides; Rattus norvegicus, po, 2 h
  inhibition in vivo at 100 mg/kg: 97%
cholesterol; Rattus norvegicus, po, 8 h
  inhibition in vivo at 100 mg/kg: 120%
Acute toxicity; [3]
  LD50: > 2000 mg/kg

## CCCCC(=O)COS(=O)(=O)c1ccc(OCC)cc1 [Compound 44]
triglycerides; [1]
  inhibition in vivo at 100 mg/kg: 99%
cholesterol; [2]
  inhibition in vivo at 100 mg/kg: 90%
Acute toxicity; po
  LD50: > 2000 mg/kg

## CCCCCC(=O)COS(=O)(=O)c1ccc(OCC)cc1 [Compound 45, 2-oxoheptyl-p-ethoxybenzenesulfonate]
triglycerides; [1]
  inhibition in vivo at 100 mg/kg: 85%
cholesterol; [2]
  inhibition in vivo at 100 mg/kg: 80%
Acute toxicity; [3]
  LD50: > 3000 mg/kg

## CCCCCCC(=O)COS(=O)(=O)c1ccc(OCC)cc1 [Compound 46, 2-oxooctyl-p-ethoxybenzene sulfonate]
triglycerides; [1]
  inhibition in vivo at 100 mg/kg: 65%
cholesterol; [2]
  inhibition in vivo at 100 mg/kg: 62%
Acute toxicity; [3]
  LD50: > 3000 mg/kg

## CCCCCCCCCCC(=O)COS(=O)(=O)c1ccc(OCC)cc1 [Compound 48]
triglycerides; [4]
  inhibition in vivo at 200 mg/kg: 72%
cholesterol; [2]
  inhibition in vivo at 100 mg/kg: 55%
Acute toxicity; po
  LD50: > 4000 mg/kg

## CCOc1ccc(S(=O)(=O)OCC(=O)C(C)CC)cc1 (stereo not drawn) [Compound 49]
triglycerides; [1]
  inhibition in vivo at 100 mg/kg: 90%
cholesterol; [2]
  inhibition in vivo at 100 mg/kg: 96%
Acute toxicity; po
  LD50: > 2000 mg/kg

## CCOc1ccc(S(=O)(=O)OCC(=O)CCCCCCC(C)C)cc1 [Compound 51]
triglycerides; Rattus norvegicus, po, 2 h
  inhibition in vivo at 200 mg/kg: 70%
cholesterol; Rattus norvegicus, po, 8 h
  inhibition in vivo at 100 mg/kg: 62%
Acute toxicity; [3]
  LD50: > 4000 mg/kg

## C=CCCC(=O)COS(=O)(=O)c1ccc(OCC)cc1 [Compound 52]
triglycerides; [1]
  inhibition in vivo at 100 mg/kg: 95%
cholesterol; [2]
  inhibition in vivo at 100 mg/kg: 97%
Acute toxicity; po
  LD50: > 2000 mg/kg

## CCCCOc1ccc(S(=O)(=O)OCC(=O)CCC)cc1 [Compound 53]
triglycerides; Rattus norvegicus, po, 2 h
  inhibition in vivo at 100 mg/kg: 61%
cholesterol; Rattus norvegicus, po, 8 h
  inhibition in vivo at 100 mg/kg: 42%
Acute toxicity; [3]
  LD50: > 2000 mg/kg

## CCCCCC(=O)COS(=O)(=O)c1ccc(OCCCC)cc1 [Compound 55]
triglycerides; Rattus norvegicus, po, 2 h
  inhibition in vivo at 200 mg/kg: 69%
cholesterol; [5]
  Anti-lipemic effect, CS (percent cholesterol inhibition), asterisked: 40%
Acute toxicity; [3]
  LD50: > 3000 mg/kg

## CCCC(=O)COS(=O)(=O)c1ccc(Cl)cc1 [Compound 64]
triglycerides; [1]
  inhibition in vivo at 100 mg/kg: 82%
cholesterol; [2]
  inhibition in vivo at 100 mg/kg: 56%
Acute toxicity; po
  LD50: > 1000 mg/kg

## CCCCC(=O)COS(=O)(=O)c1ccc(Cl)cc1 [Compound 65]
triglycerides; [1]
  inhibition in vivo at 100 mg/kg: 87%
cholesterol; [2]
  inhibition in vivo at 100 mg/kg: 49%
Acute toxicity; po
  LD50: > 1000 mg/kg

## CC(C)CCC(=O)COS(=O)(=O)c1ccc(Cl)cc1 [Compound 70]
triglycerides; [1]
  inhibition in vivo at 100 mg/kg: 82%
cholesterol; [2]
  inhibition in vivo at 100 mg/kg: 47%
Acute toxicity; po
  LD50: > 2000 mg/kg

## CCC(=O)COS(=O)(=O)c1c(C)cc(C)cc1C [Compound 72]
triglycerides; [1]
  inhibition in vivo at 100 mg/kg: 91%
cholesterol; [2]
  inhibition in vivo at 100 mg/kg: 90%
Acute toxicity; po
  LD50: > 3000 mg/kg

## CCCCC(=O)COS(=O)(=O)c1c(C)cc(C)cc1C [Compound 74]
triglycerides; [1]
  inhibition in vivo at 100 mg/kg: 77%
cholesterol; [2]
  inhibition in vivo at 100 mg/kg: 87%
Acute toxicity; po
  LD50: > 3000 mg/kg

## CCCCCC(=O)COS(=O)(=O)c1c(C)cc(C)cc1C [Compound 75]
triglycerides; [1]
  inhibition in vivo at 100 mg/kg: 53%
cholesterol; [2]
  inhibition in vivo at 100 mg/kg: 60%
Acute toxicity; po
  LD50: > 3000 mg/kg

## CCCCCCC(=O)COS(=O)(=O)c1c(C)cc(C)cc1C [Compound 76]
triglycerides; [1]
  inhibition in vivo at 100 mg/kg: 55%
cholesterol; [2]
  inhibition in vivo at 100 mg/kg: 62%
Acute toxicity; po
  LD50: > 4000 mg/kg

## CCCCCCCC(=O)COS(=O)(=O)c1c(C)cc(C)cc1C [Compound 77, 2-oxononanyl-2,4,6-trimethylbenzene sulfonate]
triglycerides; [1]
  inhibition in vivo at 100 mg/kg: 80%
cholesterol; [2]
  inhibition in vivo at 100 mg/kg: 74%
Acute toxicity; [3]
  LD50: > 4000 mg/kg

## Cc1cc(C)c(S(=O)(=O)OCC(=O)CC(C)(C)C)c(C)c1 [Compound 82]
triglycerides; [1]
  inhibition in vivo at 100 mg/kg: 56%
cholesterol; [2]
  inhibition in vivo at 100 mg/kg: 66%
Acute toxicity; po
  LD50: > 3000 mg/kg

## Cc1cc(C)c(S(=O)(=O)OCC(=O)CCC(C)C)c(C)c1 [Compound 83]
triglycerides; [1]
  inhibition in vivo at 100 mg/kg: 68%
cholesterol; [2]
  inhibition in vivo at 100 mg/kg: 71%
Acute toxicity; po
  LD50: > 3000 mg/kg

## CCCC(=O)COS(=O)(=O)c1c(C)cc(C)c(C)c1C [Compound 95, 2-oxopentyl-2,3,4,6-tetramethylbenzene sulfonate]
triglycerides; [1]
  inhibition in vivo at 100 mg/kg: 96%
cholesterol; [2]
  inhibition in vivo at 100 mg/kg: 97%
Acute toxicity; [3]
  LD50: > 3000 mg/kg
